Consider 1 compound from ChEMBL document CHEMBL3525932, “Comparison of metabolism of sesamin and episesamin by drug-metabolizing enzymes in human liver” (Drug Metab Dispos, 2012).

The target in the data set is Cytochrome P450 2C19 (Homo sapiens, UniProt P33261). The data set can be described thus: Activity of recombinant human CYP2C19 expressed in Saccharomyces cerevisiae AH22 cells assessed as enzyme-mediated compound formation treated with sesamin at 2 to 20 uM after 15 mins by HPLC analysis in presence of NADPH. In kind it is ADME, cell-based. The note with it: ah22, 0.25 h.
Cytochrome P450 2C19, sequence (P33261 whole entry): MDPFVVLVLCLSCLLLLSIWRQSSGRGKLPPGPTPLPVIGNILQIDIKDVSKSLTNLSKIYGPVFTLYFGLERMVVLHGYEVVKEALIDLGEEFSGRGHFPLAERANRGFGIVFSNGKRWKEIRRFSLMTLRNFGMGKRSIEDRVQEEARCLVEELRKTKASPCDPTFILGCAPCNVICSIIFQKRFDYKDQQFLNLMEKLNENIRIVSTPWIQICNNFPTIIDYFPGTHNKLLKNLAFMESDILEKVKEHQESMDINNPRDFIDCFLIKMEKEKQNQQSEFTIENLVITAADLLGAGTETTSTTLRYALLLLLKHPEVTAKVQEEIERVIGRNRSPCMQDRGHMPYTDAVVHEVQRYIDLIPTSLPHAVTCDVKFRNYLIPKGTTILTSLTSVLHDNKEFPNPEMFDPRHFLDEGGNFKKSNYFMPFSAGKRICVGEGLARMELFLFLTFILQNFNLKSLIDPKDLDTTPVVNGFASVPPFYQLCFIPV

As for `Oc1ccc([C@H]2OC[C@H]3[C@@H]2CO[C@@H]3c2ccc(O)c(O)c2)cc1O`, the Drug metabolism entry is on record as “metabolite_detected”.
